Test results taken from patent US20240050449A1, “Use of Acetyltanshinone IIA in Preparation of Medicament for Treating Lung Cancer and Medicament for Treating Lung Cancer” (UNIVERSITY OF MACAU, priority 2022, published 2024).

Legend:
A549 and H1650 cells = test: Protein synthesis rate (click-iT HPG Alexa Fluor 594 Protein Synthesis Assay Kit); assay type: cell-based; settings: 2 μM, 48 h
Description: In FIG. 3 (A) is protein levels of p-Akt, Akt, p-mTOR, mTOR, p-p70S6K, p70S6K, p-S6RP, and S6RP determined by Western blot analysis for A549, H358, H1975, and H1650 cells treated with ATA (1 or 2 μM) for 48 h. (B) is A549 and H1650 cells treated with ATA (1 or 2 μM) or the protein synthesis inhibitor […] (CHX, 35 μM), respectively, for 48 h. The rate of protein synthesis was determined using the click-iT™ HPG Alexa Fluor™ 594 Protein Synthesis Assay Kit. The intensity of Texas Red fluorescence in the stained image represents the rate of protein synthesis. Quantification of the rate of protein synthesis is shown. ****P<0.0001 was based on a one-way analysis of variance followed by Tukey's multiple comparison test. Scale bar, 50 μm. […] Protein levels of p-p70S6K. p70S6K. p-S6RP, and S6RP were determined by Western blot analysis. […] The rate of protein synthesis was determined using the click-iT™ HPG Alexa Fluor™ 594 Protein Synthesis Assay Kit. The intensity of Texas Red fluorescence in the stained image represents the rate of protein synthesis. Quantification of the rate of protein synthesis is shown. *P<0.05 and **P<0.01 were based on a one-way analysis of variance followed by Tukey's multiple comparison test. […] Protein levels of p70S6K. p-p70S6K, S6RP, and p-S6RP were determined by Western blot analysis. […] Data are expressed as the mean±SD of three independent experiments.

H1975 cells [1] = test: Spheroid formation experiment, H1975 cells; assay type: cell-based; settings: 2 μM, 0 to 8 days
From the text: The density of H1975 was 500 cells per well and the density of H1650 was 1000 cells per well in an ultra-low adhesion round bottom 96 well plate (Corning, #7007).

A549 cells [2] = test: Transwell Matrigel invasion assay; assay type: cell-based; settings: 1 μM
Description: (§1) Cell migration and invasion assays were performed in a transwell chamber (Corning, #3422) with a pore size of 8 μm. Cells were treated with different concentrations of ATA and Erlotinib for 48 h, then harvested and resuspended in a serum-free medium. Cells (1×10^4) were added to the upper side of the transwell chamber and fresh medium containing 10% FBS was added to the lower side. Cells were allowed to migrate from the upper side to the lower side of the chamber at 37° C. for 24 h. Membranes from the cell chamber were fixed with 4% paraformaldehyde for 20 min. The cells remaining on the upper side of the membrane were gently removed with a cotton swab and stained with 1% crystal violet for 20 min to stain the cells migrating to the other side of the transwell chamber. The membrane was then cut and fixed on a glass slide. The migrated cells on each slide were imaged with a Leica M165-FC microscope. For the transwell invasion assay, a Matrigel solution (Corning, #356230) was diluted to one-thirtieth with serum-free medium and applied to the upper side of the precoated chamber for 2 h, after the Matrigel had solidified, the cells were added to the upper side of the transwell chamber. The following procedure is identical to the migration assay. Migrated and invaded cells were quantified using ImageJ software.

[3] = Body weight, deaths and toxicity in the xenograft study; settings: 25 mg/kg intraperitoneally every 3 days for 31 days
Description: (§2) Cell line xenograft experiments were performed in 6-week-old female nude mice, 4×10^6 A549 cells were mixed 1:1 with matrigel-basement membrane matrix (Corning) and injected subcutaneously into nude mice. Tumors were allowed to grow to around […] and mice were randomly selected to receive treatment with ATA (25 mg/kg) or Erlotinib (25 mg/kg) intraperitoneally every 3 days for 31 days. ATA was formulated with 25% ethanol, 60% PEG300 (Sigma-Aldrich), and 15% Tween 80 (Sigma-Aldrich). Erlotinib was formulated in 5% DMSO, 30% PEG300, 5% Tween 80 and 60% H2O. Mouse body weight and tumor volume were measured every 3 days by a scale and caliper. Tumor volume (mm^3) was calculated using the formula. π/6×length (mm)×[width (mm)]^2. At least 6 mice in the control and treatment groups were evaluated during the study. All mice were sacrificed after 31 days of drug treatment, tumors were collected, and tumor weights were recorded. All animal studies were conducted in accordance with the requirements of the Animal Research Ethics Committee of Macao University and in compliance with all relevant ethical requirements.
(§3) To determine if ATA could also produce the same effect in vivo, this example injected A549 cells subcutaneously into nude mice to form tumor xenografts. Mice were randomly assigned to three groups. When the size of each tumor increased to a volume of approximately 100 mm^3, mice were injected intraperitoneally with vehicle control, ATA (25 mg/kg), or Erlotinib (25 mg/kg) every 3 days for 31 days. The tumor size and body weight of each mouse were measured every 3 days until the end of the animal experiment on day 31.

[4] = tested on: A549 cell-derived xenograft tumors; test: Mouse xenograft study; assay type: in vivo, nude mice; settings: 25 mg/kg intraperitoneally every 3 days, day 31
Description: as §2, §3

H1975 cells [5] = test: MTT cell viability assay, H1975 cells; assay type: cell-based; settings: Homo sapiens, NCI-H1975, MTT, 72 h
Description: (§4) Cells were seeded at a density of 3×10^3 per well in 96-well plates, allowed to attach overnight, and treated with various concentrations of agent. After 72 h of treatment, 10 μL of MTT solution (5 mg/mL) was added to each well and cultured in the plate for 4 h. The crystallized formazan was dissolved in 100 μL of 10% (w/v) SDS and 0.01 mol/L HCl solution for 24 h, and then the value was read by spectrophotometry at 595 nm using a microplate reader.

H1650 cells [6] = test: MTT cell viability assay, H1650 cells; assay type: cell-based; settings: Homo sapiens, NCI-H1650, MTT, 72 h
Description: as §4

EGFR = test: Western blot, EGFR protein levels in drug-resistant NSCLC cells; assay type: cell-based; settings: A549 and H1650 cells, 2 μM, 48 h
Description: Cells were washed once with PBS and frozen in RIPA lysis buffer containing protease and phosphatase inhibitors (Sigma-Aldrich) for 30 min. After sonication and centrifugation, the total protein concentration was determined by protein assay using Bio-Rad concentrated dye reagent (Bio-Rad). Equal amounts of protein ([…]) from each sample were separated by SDS-PAGE and electrotransferred to nitrocellulose membranes (GE Healthcare). Detection was performed on the membrane with a 1:1000 dilution of specific primary antibody followed by incubation with a 1:2000 dilution of the HRP conjugated secondary antibody. Finally, immunoreactivity is detected with a chemiluminescent substrate (Clarity Western ECL substrate; Bio-Rad). […] Aurora A (#ab13824) and PLK1 (#ab189139) antibodies were from Abcam.

H358 cells = test: MTT cell viability assay, H358 cells; assay type: cell-based; settings: Homo sapiens, NCI-H358, MTT, 72 h
Description: as §4

A549 cells [7] = test: Transwell cell migration assay; assay type: cell-based; settings: 1 μM
Description: as §1

A549 cells [8] = test: MTT cell viability assay, A549 cells; assay type: cell-based; settings: Homo sapiens, MTT, 72 h
Description: as §4

H1650 cells [9] = test: Spheroid formation experiment, H1650 cells; settings: 2 μM, 0 to 8 days
[10] = tested on: drug-resistant NSCLC cells (A549, H358, H1975, H1650); test: MTT assay, summary over all four cell lines; assay type: cell-based; settings: A549, H358, H1975, H1650; MTT, 72 h; read-out: IC50 values, range over the four cell lines
Description: as §4

p70S6K = target: T1, p70S6K (Homo sapiens, UniProt P23443); test: Western blot, p70S6K protein levels in drug-resistant NSCLC cells; assay type: cell-based; settings: A549 and H1650 cells, 2 μM, 48 h
T1 construct: endogenous in cells; host or cells: A549, H358, H1975, H1650 for the Western blots
T1 sequence (P23443 whole entry): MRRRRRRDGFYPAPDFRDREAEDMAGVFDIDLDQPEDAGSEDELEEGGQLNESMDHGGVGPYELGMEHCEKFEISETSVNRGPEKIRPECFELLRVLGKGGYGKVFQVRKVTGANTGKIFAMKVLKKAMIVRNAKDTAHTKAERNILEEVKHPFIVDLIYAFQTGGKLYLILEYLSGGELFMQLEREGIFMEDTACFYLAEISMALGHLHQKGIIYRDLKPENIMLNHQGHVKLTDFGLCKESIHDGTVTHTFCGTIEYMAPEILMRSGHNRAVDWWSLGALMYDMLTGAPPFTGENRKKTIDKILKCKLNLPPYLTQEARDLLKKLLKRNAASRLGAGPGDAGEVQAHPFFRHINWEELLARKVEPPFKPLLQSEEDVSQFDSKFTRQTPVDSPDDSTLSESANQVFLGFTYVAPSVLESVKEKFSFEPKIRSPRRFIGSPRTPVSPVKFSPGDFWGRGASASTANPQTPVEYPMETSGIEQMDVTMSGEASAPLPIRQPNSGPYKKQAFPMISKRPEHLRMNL
Description: Cells were washed once with PBS and frozen in RIPA lysis buffer containing protease and phosphatase inhibitors (Sigma-Aldrich) for 30 min. After sonication and centrifugation, the total protein concentration was determined by protein assay using Bio-Rad concentrated dye reagent (Bio-Rad). Equal amounts of protein ([…]) from each sample were separated by SDS-PAGE and electrotransferred to nitrocellulose membranes (GE Healthcare). Detection was performed on the membrane with a 1:1000 dilution of specific primary antibody followed by incubation with a 1:2000 dilution of the HRP conjugated secondary antibody. Finally, immunoreactivity is detected with a chemiluminescent substrate (Clarity Western ECL substrate; Bio-Rad). EGFR (#4267S), MET (#8198S), p-Akt (#9271L), akt (#9272S), p-mTOR (#5536S), mTOR (#2983S), p-p70S6K (#9234S), p70S6K (#2708S), p-S6RP (#4857S), S6RP (#2217S), p-4E-BP1 (#9455S) antibodies. 4E-BP1 (#9644S), p53 (#2527S), p21 waf1/Cip1 (#2947S), survivin (#2808S), cyclin B1 (#12231S), cyclin D3 (#2936S) and GAPDH (#2118S) were purchased from Cell Signaling Technology. Aurora A (#ab13824) and PLK1 (#ab189139) antibodies were from Abcam.

Row | SMILES | reduction (inhibition ratio) of protein synthesis (A549 and H1650 cells) | spheroid growth / sphere size (H1975 cells [1]) | reduction of invasion ability (A549 cells [2]) | deaths during the treatment period [3] | weight of nude mice compared between groups [3] | reduction of tumor size compared to the control group [4] [%] | reduction of tumor weight [4] | IC50 (H1975 cells [5]) [µM] | IC50 (H1650 cells [6]) [µM] | protein levels of EGFR (EGFR) | IC50 (H358 cells) [µM] | reduction of migration ability (A549 cells [7]) | IC50 (A549 cells [8]) [µM] | spheroid growth / sphere size (H1650 cells [9]) | IC50 [10] [µM] | levels of p70S6K (p70S6K)
1 | CO[C@H]1C[C@@H]2CC[C@@H](C)[C@@](O)(O2)C(=O)C(=O)N2CCCC[C@H]2C(=O)O[C@H]([C@H](C)C[C@@H]2CC[C@@H](O)[C@H](OC)C2)CC(=O)[C@H](C)/C=C(\C)[C@@H](O)[C@@H](OC)C(=O)[C@H](C)C[C@H](C)/C=C/C=C/C=C/1C [Rapamycin, rapamycin] | 25-28% |  |  |  |  |  |  |  |  |  |  |  |  |  |  | 
2 | C#Cc1cccc(Nc2ncnc3cc(OCCOC)c(OCCOC)cc23)c1 [Erlotinib, reference compound] |  | did not decrease but significantly increased | did not | no mice died | no difference | 32.5 | did not significantly reduce | 10.6 ± 1.27 | 22.1 ± 0.59 | significantly increased | 21.5 ± 1.47 | did not | 19.6 ± 0.28 | less inhibition in H1650 cells than ATA | 10 to 22 | 
3 | CCc1cncnc1N1CCN(Cc2nc3ccc(C(F)(F)F)cc3[nH]2)CC1 [PF-4708671, reference compound] | did not affect |  |  |  |  |  |  |  |  |  |  |  |  |  |  | did not decrease
